Structures are written as SMILES. Structures can show the parent of a compound that is named as a salt.

Test [1] relates to L6-myotubes. Briefly: Glucose uptake in differentiated L6-myotubes (3H-2-deoxyglucose), compared to isoproterenol. The format is cell-based. The conditions noted are these: agonist 1×10^−5 M, 50 nM 3H-2-deoxyglucose; for Emax at 10 µM: read-out: Biological example 1: glucose uptake, activity compared to that of isoproterenol. The procedure, abridged: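 Serum-starved differentiated L6 myotubes stimulated with agonist at 1×10^−5 M for 1 h 40 min, re-dosed in glucose-free medium for 20 min, then given 50 nM ^3H-2-deoxyglucose for 10 min. Uptake read by β-counting of NaOH lysates; activity expressed relative to isoproterenol.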

The test system of test [2] is L6-myotubes. The test can be described thus: Measurement of intracellular cAMP levels in differentiated L6 cells (alpha screen cAMP kit), compared to isoproterenol. The class given is cell-based. The conditions noted are these: agonist 1×10^−5 M, 15 min; for Emax at 10 µM: Rattus norvegicus, L6, 0.25 h, read-out: Biological example 2: intracellular cAMP levels, activity compared to that of isoproterenol. In a few lines: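 L6 myoblasts were differentiated into myotubes over 7 days in 2% FBS, then serum-starved overnight. Agonist at 1×10^−5 M final was applied for 15 min in HBSS with 1% BSA, 5 mM HEPES and 1 mM IBMX, pH 7.4. After ethanol extraction and lysis, cAMP was quantified by AlphaScreen, with activity expressed relative to isoproterenol.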

Take `Cc1ncccc1[C@@H](O)CNC(C)(C)C[C@H]1CC[C@@H](NS(C)(=O)=O)CC1` [Example 144, N-((1S,4s)-4-(2-(((R)-2-Hydroxy-2-(2-methylpyridin-3-yl)ethyl)amino)-2-methylpropyl)cyclohexyl)methanesulfonamide dihydrochloride]: the “Biological example 1: glucose uptake, activity compared to that of isoproterenol” value in test [1] is listed as “+ +”. Besides, the Emax at 10 µM in test [2] is < 25%.

In the case of `CC(C)(CC[C@H]1CC[C@@H](O)CC1)NC[C@H](O)c1ccccc1F` [Example 65, (1R,4s)-4-(3-(((R)-2-(2-Fluorophenyl)-2-hydroxyethyl)amino)-3-methyl-butyl)cyclohexan-1-ol], the “Biological example 1: glucose uptake, activity compared to that of isoproterenol” value in test [1] is “+ + +”. For the same compound, in test [2], the Emax at 10 µM lay in the range of 25 to 50%.

With `CC(C)(NC[C@H](O)c1cncc(F)c1)[C@H]1CC[C@@H](OCc2ccccc2)CC1` [Example 35, (R)-2-((2-((1s,4S)-4-(Benzyloxy)cyclohexyl)propan-2-yl)amino)-1-(5-fluoropyridin-3-yl)ethan-1-ol], in test [1], the “Biological example 1: glucose uptake, activity compared to that of isoproterenol” value is listed as “+ +”. For the same compound, the Emax at 10 µM in test [2] is < 25%.

Take `CC(C)(C[C@H]1CC[C@@H](C(=O)O)CC1)NC[C@H](O)c1cccc(F)c1` [Example 105, (1S,4s)-4-(2-(((R)-2-(3-Fluorophenyl)-2-hydroxyethyl)amino)-2-methylpropyl)cyclohexane-1-carboxylic acid]: the Emax at 10 µM in test [1] was 25 to 50%; in test [2], < 25%.

As to `CS(=O)(=O)N[C@H]1CC[C@@H](CNC[C@H](O)c2cncc(F)c2)CC1` [Example 78, N-((1S,4s)-4-((((R)-2-(5-Fluoropyridin-3-yl)-2-hydroxyethyl)amino)methyl)-cyclohexyl)methanesulfonamide], the “Biological example 1: glucose uptake, activity compared to that of isoproterenol” value in test [1] is “+ +”. In addition, in test [2], the Emax at 10 µM was < 25%.

In the case of `CC(C)(C[C@H]1CC[C@H](NC(=O)OC(C)(C)C)CC1)NC[C@H](O)c1cccc(C(F)(F)F)n1` [Example 148, tert-Butyl ((1S,4r)-4-(2-(((S)-2-hydroxy-2-(6-(trifluoromethyl)pyridin-2-yl)ethyl)amino)-2-methylpropyl)cyclohexyl)carbamate], the “Biological example 1: glucose uptake, activity compared to that of isoproterenol” value in test [1] is listed as “+ + +”. The Emax at 10 µM in test [2] was < 25%.

In the case of `CC(C)(CC[C@H]1CC[C@@H](C(=O)O)CC1)NC[C@H](O)c1cccc(F)c1` [Example 113, (1S,4s)-4-(3-(((R)-2-(3-Fluorophenyl)-2-hydroxyethyl)amino)-3-methyl-butyl)cyclohexane-1-carboxylic acid], the Emax at 10 µM is 25 to 50% in test [1] and < 25% in test [2].

As to `CC(C)(C[C@H]1CC[C@@H](NC(=O)C2CC2)CC1)NC[C@H](O)c1cccc(F)c1` [Example 166, N-((1S,4s)-4-(2-(((R)-2-(3-Fluorophenyl)-2-hydroxyethyl)amino)-2-methylpropyl)cyclohexyl)cyclopropanecarboxamide hydrochloride], the “Biological example 1: glucose uptake, activity compared to that of isoproterenol” value in test [1] was “+ + +”. For the same compound, the Emax at 10 µM in test [2] is < 25%.

With `CC(C)(C[C@H]1CC[C@H](C(=O)O)CC1)NC[C@H](O)c1cccc(F)c1` [Example 109, (1R,4r)-4-(2-(((R)-2-(3-fluorophenyl)-2-hydroxyethyl)amino)-2-methyl-propyl)cyclohexane-1-carboxylic acid acetate], the “Biological example 1: glucose uptake, activity compared to that of isoproterenol” value in test [1] is “+ +”. The Emax at 10 µM in test [2] is < 25%.

As to `O[C@@H](CNCC[C@H]1CC[C@@H](O)CC1)c1cncc(F)c1` [Example 44, (1S,4s)-4-(2-(((R)-2-(5-Fluoropyridin-3-yl)-2-hydroxyethyl)amino)-ethyl)cyclohexan-1-ol], the results for the Emax at 10 µM in test [1] and in test [2] were 25 to 50% and < 25%, respectively.

Regarding `CO[C@H]1CCC[C@@H](C(C)(C)NC[C@H](O)c2cncc(F)c2)C1` (single isomer, unassigned) [Example 122], in test [1], the “Biological example 1: glucose uptake, activity compared to that of isoproterenol” value is on record as “+ + +”. Besides, in test [2], the “Biological example 2: intracellular cAMP levels, activity compared to that of isoproterenol” value was “+ +”.

Regarding `CO[C@H]1CC[C@@H](CC(C)(C)NC[C@H](O)c2cccc(F)c2)CC1` [Example 13, (R)-1-(3-Fluorophenyl)-2-((1-((1s,4S)-4-methoxycyclohexyl)-2-methyl-propan-2-yl)amino)ethan-1-ol], the “Biological example 1: glucose uptake, activity compared to that of isoproterenol” value in test [1] was “+ + +”. For the same compound, the Emax at 10 µM in test [2] is < 25%.

Regarding `CC(=O)N[C@H]1CC[C@H](CNC[C@H](O)c2cncc(F)c2)CC1` [Example 68, N-((1R,4r)-4-((((R)-2-(5-Fluoropyridin-3-yl)-2-hydroxyethyl)amino)-methyl)cyclohexyl)acetamide], the Emax at 10 µM in test [1] is 25 to 50%; in test [2], < 25%.

For the compound `COC1CCC(CCC(C)(C)NC[C@H](O)c2cncc(F)c2)CC1` (stereo partly drawn) [Example 22, (R)-1-(5-Fluoropyridin-3-yl)-2-((4-((1r,4S)-4-methoxycyclohexyl)-2-methylbutan-2-yl)amino)ethan-1-ol dihydrochloride], the Emax at 10 µM in test [1] was 25 to 50%; in test [2], < 25%.

For `CN([C@H]1CC[C@@H](CC(C)(C)NC[C@H](O)c2cncc(F)c2)CC1)S(C)(=O)=O.Cl` [Example 185, N-((1S,4s)-4-(2-(((R)-2-(5-Fluoropyridin-3-yl)-2-hydroxyethyl)amino)-2-methylpropyl)cyclohexyl)-N-methylmethanesulfonamide], in test [1], the “Biological example 1: glucose uptake, activity compared to that of isoproterenol” value is given as “+ + +”. Besides, in test [2], the Emax at 10 µM is < 25%.

For the compound `CC(C)(C[C@H]1CC[C@@H](NC(=O)C2CCC2)CC1)NC[C@H](O)c1cccc(F)c1` [Example 167, N-((1S,4s)-4-(2-(((R)-2-(3-Fluorophenyl)-2-hydroxyethyl)amino)-2-methylpropyl)cyclohexyl)cyclobutanecarboxamide hydrochloride], in test [1], the “Biological example 1: glucose uptake, activity compared to that of isoproterenol” value is “+ +”. For the same compound, the Emax at 10 µM in test [2] is < 25%.

In the case of `CC(C)(CC[C@H]1CC[C@H](O)CC1)NC[C@H](O)c1cccc(F)c1` [Example 61, (1S,4r)-4-(3-(((R)-2-(3-Fluorophenyl)-2-hydroxyethyl)amino)-3-methyl-butyl)cyclohexan-1-ol], the figures for the Emax at 10 µM in test [1] and in test [2] were 25 to 50% and < 25%, respectively.

Turning to `CC(C)(C[C@H]1CC[C@@H](NS(C)(=O)=O)CC1)NC[C@H](O)c1cccc(C(F)(F)F)n1` [Example 150, N-((1R,4s)-4-(2-(((S)-2-Hydroxy-2-(6-(trifluoromethyl)pyridin-2-yl)ethyl)-amino)-2-methylpropyl)cyclohexyl)methanesulfonamide dihydrochloride], the “Biological example 1: glucose uptake, activity compared to that of isoproterenol” value in test [1] is recorded as “+ + +”. In addition, the Emax at 10 µM in test [2] is < 25%.

As for `COC(=O)[C@H]1CC[C@@H](CCC(C)(C)NC[C@H](O)c2cccc(F)c2)CC1` [Example 111, Methyl (1S,4s)-4-(3-(((R)-2-(3-fluorophenyl)-2-hydroxyethyl)amino)-3-methylbutyl)cyclohexane-1-carboxylate], the “Biological example 1: glucose uptake, activity compared to that of isoproterenol” value in test [1] is “+ + +”. Also, in test [2], the Emax at 10 µM was 25 to 50%.

In the case of `CC(C)(C[C@H]1CC[C@H](N)CC1)NC[C@H](O)c1cccc(C#N)n1` [Example 132, 6-((S)-2-((1-((1r,4S)-4-Aminocyclohexyl)-2-methylpropan-2-yl)amino)-1-hydroxyethyl)picolinonitrile trihydrochloride], the “Biological example 1: glucose uptake, activity compared to that of isoproterenol” value in test [1] is recorded as “+ + +”. Moreover, the Emax at 10 µM in test [2] lay in the range of 25 to 50%.

Regarding `CCOC(=O)CO[C@H]1CC[C@H](C(C)(C)NC[C@H](O)c2cncc(F)c2)CC1` [Example 125, Ethyl 2-(((1R,4r)-4-(2-(((R)-2-(5-fluoropyridin-3-yl)-2-hydroxyethyl)-amino)propan-2-yl)cyclohexyl)oxy)acetate], the “Biological example 1: glucose uptake, activity compared to that of isoproterenol” value in test [1] is “+ + +”. In addition, in test [2], the Emax at 10 µM is < 25%.

Regarding `CO[C@@H]1CCC[C@H](C(C)(C)NC[C@H](O)c2cccc(F)c2)C1` (single isomer, unassigned) [Example 119], the “Biological example 1: glucose uptake, activity compared to that of isoproterenol” value in test [1] was “+ + +”. In addition, the Emax at 10 µM in test [2] is < 25%.

Regarding `CC(C)(NC[C@H](O)c1cncc(F)c1)[C@H]1CC[C@@H](C(=O)O)CC1` [Example 97, (1S,4s)-4-(2-(((R)-2-(5-Fluoropyridin-3-yl)-2-hydroxyethyl)amino)propan-2-yl)cyclohexane-1-carboxylic acid], the Emax at 10 µM in test [1] and in test [2] was 25 to 50% throughout.

`CO[C@H]1CC[C@@H](CCC(C)(C)NC[C@H](O)c2cncc(F)c2)CC1` [Example 24, (R)-1-(5-Fluoropyridin-3-yl)-2-((4-((1s,4R)-4-methoxycyclohexyl)-2-methylbutan-2-yl)amino)ethan-1-ol dihydrochloride]: in test [1], the “Biological example 1: glucose uptake, activity compared to that of isoproterenol” value is recorded as “+ + +”. Moreover, the Emax at 10 µM in test [2] was < 25%.

For `CC(C)(C[C@H]1CC[C@H](O)CC1)NC[C@H](O)c1cncc(F)c1` [Example 52, (1R,4r)-4-(2-(((R)-2-(5-Fluoropyridin-3-yl)-2-hydroxyethyl)amino)-2-methylpropyl)cyclohexan-1-ol], in test [1], the “Biological example 1: glucose uptake, activity compared to that of isoproterenol” value was “+ + +”. The Emax at 10 µM in test [2] is < 25%.

Turning to `O[C@@H](CNC[C@H]1CC[C@H](OCc2ccccc2)CC1)c1cccc(F)c1` [Example 29, (R)-2-((((1r,4R)-4-(Benzyloxy)cyclohexyl)methyl)amino)-1-(3-fluoro-phenyl)ethan-1-ol], the results for the Emax at 10 µM in test [1] and in test [2] were 25 to 50% and < 25%, respectively.

The values are drawn from patent US20240390298A1, “CYCLOHEXYL BETA-HYDROXY ALKYL AMINES AND MEDICAL USES THEREOF” (ATROGI AB, priority 2021, published 2024).
